Where two headings read alike, the source gives them in different places.
Key:
[1] = tested on: A. baumannii 14B0097 (Acinetobacter sp., BCRC number 14B0097)
Outline: (§1)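 MICs came from CLSI broth microdilution, with 5 × 10^5 CFU/mL bacteria exposed to peptide at final 0.78–50 µg/mL. Media were MH broth or LYM broth (pH 7.4), the latter also adjusted for salt (NaCl 50–300 mM, MgCl2 0.5–2.5 mM) or acidity (pH 4.5–6.5); triplicate independent experiments.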

[2] = tested on: Pseudomonas aeruginosa Migula (ATCC 27853)
Outline: as §1

[3] = tested on: S. aureus ATCC 6538
Outline: as §1

[4] = tested on: S. aureus ATCC 33591
Outline: as §1

[5] = tested on: A. baumannii 14B00100 (Acinetobacter sp., BCRC number 14B0100)
Outline: as §1

[6] = tested on: A. baumannii 14B0091 (Acinetobacter sp., BCRC number 14B0091)
Outline: as §1

[7] = tested on: S. aureus ATCC 25923
Outline: as §1

[8] = LYM broth, 0 mM NaCl, 16 h, 37 °C
[9] = LYM broth, 50 mM NaCl, 16 h, 37 °C
[10] = LYM broth, 100 mM NaCl, 16 h, 37 °C
[11] = LYM broth, 200 mM (NaCl), 16 h, 37 °C
[12] = LYM broth, 300 mM (NaCl), 16 h, 37 °C
[13] = MH broth, 5 × 10^5 CFU/mL, 16 h, 37 °C, repeated three times

Substance: Ac-LAKKKKWRKWLKW-NH2 [Peptide W5K09]
- MIC [1, 8]: 3.13 µg/mL
- MIC ([1]; LYM broth, 0.5 mM MgCl2): 3.13 µg/mL
- MIC ([1]; LYM broth, 1.5 mM MgCl2): 3.13 µg/mL
- MIC ([1]; LYM broth, 2.5 mM MgCl2): 3.13 µg/mL
- MIC [1, 9]: 3.13 µg/mL
- MIC [1, 10]: 12.5 µg/mL
- MIC [1, 11]: 50 µg/mL
- MIC [1, 12]: >50 µg/mL
- MIC ([1]; LYM broth, pH 4.5): 6.25 µg/mL
- MIC ([1]; LYM broth, pH 5.5): 3.13 µg/mL
- MIC ([1]; LYM broth, pH 6.5): 1.56 µg/mL
- MIC [1, 13]: 25 µg/mL
- MIC [2, 8]: 3.13 µg/mL
- MIC ([2]; LYM broth, 0.5 mM MgCl2): 6.25 µg/mL
- MIC ([2]; LYM broth, 1.5 mM MgCl2): 6.25 µg/mL
- MIC ([2]; LYM broth, 2.5 mM MgCl2): 12.5 µg/mL
- MIC [2, 9]: 6.25 µg/mL
- MIC [2, 10]: 12.5 µg/mL
- MIC [2, 11]: 50 µg/mL
- MIC [2, 12]: >50 µg/mL
- MIC ([2]; LYM broth, pH 4.5): 6.25 µg/mL
- MIC ([2]; LYM broth, pH 5.5): 3.13 µg/mL
- MIC ([2]; LYM broth, pH 6.5): 3.13 µg/mL
- MIC [2, 13]: 25 µg/mL
- MIC [3, 8]: 6.25 µg/mL
- MIC ([3]; LYM broth, 0.5 mM MgCl2): 3.13 µg/mL
- MIC ([3]; LYM broth, 1.5 mM MgCl2): 3.13 µg/mL
- MIC ([3]; LYM broth, 2.5 mM MgCl2): 3.13 µg/mL
- MIC [3, 9]: 6.25 µg/mL
- MIC [3, 10]: 12.5 µg/mL
- MIC [3, 11]: 12.5 µg/mL
- MIC [3, 12]: 50 µg/mL
- MIC ([3]; LYM broth, pH 4.5): 6.25 µg/mL
- MIC ([3]; LYM broth, pH 5.5): 3.13 µg/mL
- MIC ([3]; LYM broth, pH 6.5): 3.13 µg/mL
- MIC [3, 13]: >50 µg/mL
- MIC [4, 8]: 25 µg/mL
- MIC ([4]; LYM broth, 0.5 mM MgCl2): 25 µg/mL
- MIC ([4]; LYM broth, 1.5 mM MgCl2): 50 µg/mL
- MIC ([4]; LYM broth, 2.5 mM MgCl2): 50 µg/mL
- MIC [4, 9]: 25 µg/mL
- MIC [4, 10]: 50 µg/mL
- MIC [4, 11]: >50 µg/mL
- MIC [4, 12]: >50 µg/mL
- MIC ([4]; LYM broth, pH 4.5): 25 µg/mL
- MIC ([4]; LYM broth, pH 5.5): 12.5 µg/mL
- MIC ([4]; LYM broth, pH 6.5): 12.5 µg/mL
- MIC [4, 13]: >50 µg/mL
- MIC [5, 8]: 3.13 µg/mL
- MIC ([5]; LYM broth, 0.5 mM MgCl2): 3.13 µg/mL
- MIC ([5]; LYM broth, 1.5 mM MgCl2): 3.13 µg/mL
- MIC ([5]; LYM broth, 2.5 mM MgCl2): 3.13 µg/mL
- MIC [5, 9]: 3.13 µg/mL
- MIC [5, 10]: 6.25 µg/mL
- MIC [5, 11]: 25 µg/mL
- MIC [5, 12]: >50 µg/mL
- MIC ([5]; LYM broth, pH 4.5): 3.13 µg/mL
- MIC ([5]; LYM broth, pH 5.5): 1.56 µg/mL
- MIC ([5]; LYM broth, pH 6.5): 1.56 µg/mL
- MIC [5, 13]: 50 µg/mL
- MIC [6, 8]: 1.56 µg/mL
- MIC ([6]; LYM broth, 0.5 mM MgCl2): 3.13 µg/mL
- MIC ([6]; LYM broth, 1.5 mM MgCl2): 3.13 µg/mL
- MIC ([6]; LYM broth, 2.5 mM MgCl2): 3.13 µg/mL
- MIC [6, 9]: 6.25 µg/mL
- MIC [6, 10]: 12.5 µg/mL
- MIC [6, 11]: 50 µg/mL
- MIC [6, 12]: >50 µg/mL
- MIC ([6]; LYM broth, pH 4.5): 6.25 µg/mL
- MIC ([6]; LYM broth, pH 5.5): 3.13 µg/mL
- MIC ([6]; LYM broth, pH 6.5): 1.56 µg/mL
- MIC [6, 13]: 50 µg/mL
- MIC [7, 8]: 3.13 µg/mL
- MIC ([7]; LYM broth, 0.5 mM MgCl2): 3.13 µg/mL
- MIC ([7]; LYM broth, 1.5 mM MgCl2): 6.25 µg/mL
- MIC ([7]; LYM broth, 2.5 mM MgCl2): 6.25 µg/mL
- MIC [7, 9]: 6.25 µg/mL
- MIC [7, 10]: 12.5 µg/mL
- MIC [7, 11]: 50 µg/mL
- MIC [7, 12]: >50 µg/mL
- MIC ([7]; LYM broth, pH 4.5): 6.25 µg/mL
- MIC ([7]; LYM broth, pH 5.5): 3.13 µg/mL
- MIC ([7]; LYM broth, pH 6.5): 1.56 µg/mL
- MIC [7, 13]: 25 µg/mL

Substance: Ac-LKWLAKKKKWRKW-NH2 [Peptide W5K06]
- MIC [1, 8]: 3.13 µg/mL
- MIC ([1]; LYM broth, 0.5 mM MgCl2): 3.13 µg/mL
- MIC ([1]; LYM broth, 1.5 mM MgCl2): 3.13 µg/mL
- MIC ([1]; LYM broth, 2.5 mM MgCl2): 3.13 µg/mL
- MIC [1, 9]: 3.13 µg/mL
- MIC [1, 10]: 6.25 µg/mL
- MIC [1, 11]: 50 µg/mL
- MIC [1, 12]: >50 µg/mL
- MIC ([1]; LYM broth, pH 4.5): 3.13 µg/mL
- MIC ([1]; LYM broth, pH 5.5): 3.13 µg/mL
- MIC ([1]; LYM broth, pH 6.5): 1.56 µg/mL
- MIC [1, 13]: 50 µg/mL
- MIC [2, 8]: 6.25 µg/mL
- MIC ([2]; LYM broth, 0.5 mM MgCl2): 6.25 µg/mL
- MIC ([2]; LYM broth, 1.5 mM MgCl2): 6.25 µg/mL
- MIC ([2]; LYM broth, 2.5 mM MgCl2): 25 µg/mL
- MIC [2, 10]: 25 µg/mL
- MIC [2, 11]: >50 µg/mL
- MIC [2, 12]: >50 µg/mL
- MIC ([2]; LYM broth, pH 4.5): 25 µg/mL
- MIC ([2]; LYM broth, pH 5.5): 6.25 µg/mL
- MIC ([2]; LYM broth, pH 6.5): 3.13 µg/mL
- MIC [2, 13]: 50 µg/mL
- MIC [3, 8]: 6.25 µg/mL
- MIC ([3]; LYM broth, 0.5 mM MgCl2): 3.13 µg/mL
- MIC ([3]; LYM broth, 1.5 mM MgCl2): 3.13 µg/mL
- MIC ([3]; LYM broth, 2.5 mM MgCl2): 6.25 µg/mL
- MIC [3, 9]: 6.25 µg/mL
- MIC [3, 10]: 25 µg/mL
- MIC [3, 11]: 50 µg/mL
- MIC [3, 12]: >50 µg/mL
- MIC ([3]; LYM broth, pH 4.5): 6.25 µg/mL
- MIC ([3]; LYM broth, pH 5.5): 6.25 µg/mL
- MIC ([3]; LYM broth, pH 6.5): 6.25 µg/mL
- MIC [3, 13]: 50 µg/mL
- MIC [4, 8]: 12.5 µg/mL
- MIC ([4]; LYM broth, 0.5 mM MgCl2): 12.5 µg/mL
- MIC ([4]; LYM broth, 1.5 mM MgCl2): 12.5 µg/mL
- MIC ([4]; LYM broth, 2.5 mM MgCl2): 25 µg/mL
- MIC [4, 9]: 25 µg/mL
- MIC [4, 10]: 50 µg/mL
- MIC [4, 11]: 50 µg/mL
- MIC [4, 12]: >50 µg/mL
- MIC ([4]; LYM broth, pH 4.5): 12.5 µg/mL
- MIC ([4]; LYM broth, pH 5.5): 6.25 µg/mL
- MIC ([4]; LYM broth, pH 6.5): 6.25 µg/mL
- MIC [4, 13]: >50 µg/mL
- MIC [5, 8]: 3.13 µg/mL
- MIC ([5]; LYM broth, 0.5 mM MgCl2): 3.13 µg/mL
- MIC ([5]; LYM broth, 1.5 mM MgCl2): 3.13 µg/mL
- MIC ([5]; LYM broth, 2.5 mM MgCl2): 3.13 µg/mL
- MIC [5, 9]: 3.13 µg/mL
- MIC [5, 10]: 6.25 µg/mL
- MIC [5, 11]: 25 µg/mL
- MIC [5, 12]: >50 µg/mL
- MIC ([5]; LYM broth, pH 4.5): 3.13 µg/mL
- MIC ([5]; LYM broth, pH 5.5): 3.13 µg/mL
- MIC ([5]; LYM broth, pH 6.5): 1.56 µg/mL
- MIC [5, 13]: 50 µg/mL
- MIC [6, 8]: 3.13 µg/mL
- MIC ([6]; LYM broth, 0.5 mM MgCl2): 3.13 µg/mL
- MIC ([6]; LYM broth, 1.5 mM MgCl2): 3.13 µg/mL
- MIC ([6]; LYM broth, 2.5 mM MgCl2): 3.13 µg/mL
- MIC [6, 9]: 3.13 µg/mL
- MIC [6, 10]: 6.25 µg/mL
- MIC [6, 11]: 50 µg/mL
- MIC [6, 12]: >50 µg/mL
- MIC ([6]; LYM broth, pH 4.5): 3.13 µg/mL
- MIC ([6]; LYM broth, pH 5.5): 3.13 µg/mL
- MIC ([6]; LYM broth, pH 6.5): 1.56 µg/mL
- MIC [6, 13]: 50 µg/mL
- MIC [7, 8]: 6.25 µg/mL
- MIC ([7]; LYM broth, 0.5 mM MgCl2): 6.25 µg/mL
- MIC ([7]; LYM broth, 1.5 mM MgCl2): 6.25 µg/mL
- MIC ([7]; LYM broth, 2.5 mM MgCl2): 6.25 µg/mL
- MIC [7, 9]: 12.5 µg/mL
- MIC [7, 10]: 25 µg/mL
- MIC [7, 11]: 50 µg/mL
- MIC [7, 12]: >50 µg/mL
- MIC ([7]; LYM broth, pH 4.5): 6.25 µg/mL
- MIC ([7]; LYM broth, pH 5.5): 6.25 µg/mL
- MIC ([7]; LYM broth, pH 6.5): 3.13 µg/mL
- MIC [7, 13]: 50 µg/mL

From paper PMC12649549, “Sequence Permutation Generated Lysine and Tryptophan-Rich Antimicrobial Peptides with Enhanced Therapeutic Index” (Antibiotics, 2025)
